# Experimental data published in patent US20250262201A1, “COMPOUNDS AND METHODS USEFUL FOR STABILIZING PHENYLALANINE HYDROXYLASE MUTATIONS” (Agios Pharmaceuticals, Inc., priority 2022, published 2025).
# Biological target: T1, human PAH with the R408W mutation (Homo sapiens, UniProt P00439, R408W)
# T1 construct: expressed in transfected cells
# T1 sequence (P00439 1-452 R408W): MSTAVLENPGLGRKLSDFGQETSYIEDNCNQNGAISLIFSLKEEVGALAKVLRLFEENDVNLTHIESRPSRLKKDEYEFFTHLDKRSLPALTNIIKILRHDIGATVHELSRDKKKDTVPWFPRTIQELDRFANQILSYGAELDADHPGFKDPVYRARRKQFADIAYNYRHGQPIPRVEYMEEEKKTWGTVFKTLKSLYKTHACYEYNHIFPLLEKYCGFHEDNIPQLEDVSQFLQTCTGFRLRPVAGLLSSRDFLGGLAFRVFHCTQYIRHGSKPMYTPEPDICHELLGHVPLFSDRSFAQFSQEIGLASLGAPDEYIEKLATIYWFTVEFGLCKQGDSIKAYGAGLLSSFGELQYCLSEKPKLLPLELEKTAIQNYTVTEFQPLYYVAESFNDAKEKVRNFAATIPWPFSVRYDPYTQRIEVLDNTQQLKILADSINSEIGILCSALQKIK
# Assay: Cell Based Phenylalanine Flux Assay
# Design: scale not given here
# Conditions: not given
row,AC50,Compound
1,1000 to 5000 nM,Cn1ncc(C(=O)N2CCc3[nH]cnc3C2c2ccc3ccccc3n2)c1C(F)F (stereo not shown)

# Same assay, conditions: A375 R408W cells, 24 hrs with compound, then 20 μM sepiapterin and 800 μM 13C9,15N-Phenylalanine for 4 hours; 13C-Tyrosine by LC-MS; average where tested multiple times
row,AC50,Compound
1,"E, E","C[C@H]1CN(C(=O)c2ocnc2C(F)(F)F)[C@@H](c2cc3ccccc3cn2)c2nc[nH]c21 (single isomer, unassigned)"

# Same assay, conditions: A375 R408W cells, 24 hrs with compound, then 20 μM sepiapterin and 800 μM 13C9,15N-Phenylalanine for 4 hours; 13C-Tyrosine by LC-MS; average where tested multiple times; read-out: AC50
row,Compound,AC50
1,O=C(Cn1cncn1)N1CCc2[nH]cnc2C1c1cn2ccccc2n1 (stereo not shown),> 5000 nM
2,O=C(c1nnc(C2CC(F)(F)C2)o1)N1CCc2[nH]cnc2C1c1ccc2ccccc2n1 (stereo not shown),> 5000 nM
3,Cn1nc(C(=O)N2CCc3[nH]cnc3C2c2ccc3ccccc3n2)c2ccccc21 (stereo not shown),1000 to 5000 nM
4,O=C(c1nnc(N2CCC(F)CC2)o1)N1CCc2[nH]cnc2C1c1ccc2ccccc2n1 (stereo not shown),> 5000 nM
5,O=C(Cc1nc(C(F)(F)F)cs1)N1CCc2[nH]cnc2C1c1cn2ccccc2n1 (stereo not shown),> 5000 nM
6,O=C(C1CC1(F)F)N1CCc2[nH]cnc2C1c1cn2ccccc2n1 (stereo not shown),1000 to 5000 nM
7,Cn1cncc1-c1nnc(C(=O)N2CCc3[nH]cnc3C2c2ncc3ccccc3n2)o1 (stereo not shown),1000 to 5000 nM
8,O=C(Cc1nncs1)N1CCc2[nH]cnc2C1c1cn2ccccc2n1 (stereo not shown),> 5000 nM
9,O=C(c1cnc(C2(O)CCC2)s1)N1CCc2[nH]cnc2C1c1cn2ccccc2n1 (stereo not shown),1000 to 5000 nM

# The remaining lines, values ahead:
row,AC50,Compound
1,1000 to 5000 nM,Cn1nc(C(F)(F)F)nc1C(=O)N1CCc2[nH]cnc2C1c1ccc2ccccc2n1 (stereo not shown)
2,1000 to 5000 nM,O=C(c1cnco1)N1CCc2[nH]cnc2C1c1cc2ccccc2nn1 (stereo not shown)
3,1000 to 5000 nM,CN(C)Cc1ccc2c(C(=O)N3CC4(CC4)c4[nH]cnc4C3c3cc4ccccc4cn3)cnn2c1 (stereo not shown)

# Same assay, conditions: A375 cells expressing human R408W PAH; 24 hrs compound incubation; 13C-Tyrosine by LC-MS; average where tested multiple times; read-out: AC50
row,Compound,AC50
1,"Cc1ccc(-c2nnc(C(=O)N3CCc4[nH]cnc4C3c3ccc4ccccc4n3)o2)nc1 (stereo in doubt) [Example 103, (S)-(5-(5-methylpyridin-2-yl)-1,3,4-oxadiazol-2-yl)(4-(quinolin-2-yl)-6,7-dihydro-1H-imidazo[4,5-c]pyridin-5(4H)-yl)methanone]",1000 to 5000 nM
2,"Cn1ccc(-c2nnc(C(=O)N3CCc4[nH]cnc4[C@@H]3c3ncc4ccccc4n3)o2)n1 [Example 166, (R)-(5-(1-methyl-1H-pyrazol-3-yl)-1,3,4-oxadiazol-2-yl)(4-(quinazolin-2-yl)-6,7-dihydro-1H-imidazo[4,5-c]pyridin-5(4H)-yl)methanone]",1000 to 5000 nM

# Now from value to compound:
row,AC50,Compound
1,< 500 nM,"O=C(c1ocnc1-c1ccccn1)N1CCc2[nH]cnc2[C@H]1c1cc2ccccc2cn1 [Example 354, (R)-(4-(isoquinolin-3-yl)-6,7-dihydro-1H-imidazo[4,5-c]pyridin-5(4H)-yl)(4-(pyridin-2-yl)oxazol-5-yl)methanone]"
2,500 to 1000 nM,"CC(C)(O)c1nc(C(=O)N2CCc3[nH]cnc3[C@H]2c2cc3ccccc3cn2)no1 [Example 421, (R)-(5-(2-hydroxypropan-2-yl)-1,2,4-oxadiazol-3-yl)(4-(isoquinolin-3-yl)-6,7-dihydro-1H-imidazo[4,5-c]pyridin-5(4H)-yl)methanone]"
3,1000 to 5000 nM,"C[C@H]1CN(C(=O)c2cnc(-c3ccccn3)o2)[C@H](c2cc3ccccc3cn2)c2nc[nH]c21 [Example 381, ((4R,7S)-4-(isoquinolin-3-yl)-7-methyl-6,7-dihydro-1H-imidazo[4,5-c]pyridin-5(4H)-yl)(2-(pyridin-2-yl)oxazol-5-yl)methanone]"
4,500 to 1000 nM,"COCc1ncc(C(=O)N2CCc3[nH]cnc3[C@H]2c2cc3ccccc3cn2)s1 [Example 393, (R)-(4-(isoquinolin-3-yl)-6,7-dihydro-1H-imidazo[4,5-c]pyridin-5(4H)-yl)(2-(methoxymethyl)thiazol-5-yl)methanone]"
5,< 500 nM,"C[C@@H](O)c1nc(C(F)F)c(C(=O)N2CCc3[nH]cnc3C2c2ccc3ccccc3n2)o1 (stereo in doubt) [Example 120, (4-(difluoromethyl)-2-((R)-1-hydroxyethyl)oxazol-5-yl)((R)-4-(quinolin-2-yl)-6,7-dihydro-1H-imidazo[4,5-c]pyridin-5(4H)-yl)methanone]"
6,500 to 1000 nM,"C[C@H]1CN(C(=O)c2cnc(C(C)(C)O)o2)[C@H](c2cc3ccccc3cn2)c2nc[nH]c21 [Example 395, (2-(2-hydroxypropan-2-yl)oxazol-5-yl)((4R,7S)-4-(isoquinolin-3-yl)-7-methyl-6,7-dihydro-1H-imidazo[4,5-c]pyridin-5(4H)-yl)methanone]"
